This assay deals with mice exposed to a lethal dose of 60Co radiation. Briefly: Radilex treatment of mice after lethal 60Co radiation exposure (survival, blood counts). It is filed as in vivo, mice (C57BL/6J). From the text:
One purpose of the study is to determine the effects of Radilex™ ([Sar^9, Met(02)^11]-Substance P) after exposure to a lethal dose of ^60Co radiation exposure. Another purpose of the study is to determine if intra-muscular injections of Radilex™ can be as effective as aerosol inhalation of Radilex™ at 8Gy ^60Co radiation level.
Blood draws (2 animals per group rotating every 5 days) for erythrocytes, leukocytes and platelets were taken to assess anemia, neutropenia and thrombocytopenia. Counts of erythrocytes, leukocytes and platelets were taken to assess anemia, neutropenia and thrombocytopenia and act as indicators of bone marrow damage and/or immune system destruction.
The mice received Radilex™ treatment within 2 hours of radiation exposure. The Radilex™ dosage was administered in a volume of 0.01 ml in a daily single treatment via IM injection into the hind limb muscle a single time, for the duration of the study (30 days), or until death.
The following regimens were tested on groups of 9-11 mice:
10 mM Radilex™ single intramuscular treatment
1 mM Radilex™ single intramuscular treatment
1 mM Radilex™ daily intramuscular treatment
75 uM Radilex™ single intramuscular treatment
75 uM Radilex™ daily intramuscular treatment
10 uM Radilex™ daily via nebulizer
50 uM Radilex™ daily via nebulizer
75 uM Radilex™ daily via nebulizer
100 uM Radilex™ daily via nebulizer […]

The values that follow come from patent US20100062986A1, “METHOD TO TREAT BLOOD CELL DEPLETION” (ImmuneRegen Biosciences, Inc., priority 2006, published 2010).

In the case of “[Sar^9, Met(02)^11]-Substance P [Radilex™]”, the “Radioprotection: effects of lethal exposure” value (mice, lethal 60Co radiation, Radilex intramuscular or via nebulizer, first treatment within 2 hours of exposure) was “Reversed”. Besides, the Neutropenia and anemia entry (surviving animals after 60Co radiation, white cell count and hematocrit) is “Reversed”.
